# Results reported in ChEMBL document CHEMBL4028819, “Synthesis, antiplatelet and antithrombotic activities of resveratrol derivatives with NO-donor properties” (Bioorg Med Chem Lett, 2017).
# Calls of active or inactive are those of the source. The rule behind the calls is not given here.
# Columns and labels:
# Platelet [1] = assay: Antiplatelet activity in Wistar rat platelet rich plasma assessed as inhibition of ADP-induced platelet aggregation at 150 uM preincubated for 1 min followed by ADP addition by aggregometric analysis relative to control; format: functional
# Platelet [2] = assay: Antiplatelet activity in Wistar rat platelet rich plasma assessed as inhibition of arachidonic acid-induced platelet aggregation at 150 uM preincubated for 1 min followed by arachidonic acid addition by aggregometric analysis relative to control; format: functional
# Platelet [3] = assay: Antiplatelet activity in Wistar rat platelet rich plasma assessed as inhibition of collagen-induced platelet aggregation at 150 uM preincubated for 1 min followed by collagen addition by aggregometric analysis relative to control; format: functional
# [4] = Induction of NO release assessed as nitrite formation in aqueous buffer at pH 7.4 measured after 1 hr in presence of L-cysteine by Griess assay; set-up: concentration or dose not given beside the values
# Mus musculus [5] = assay: Anti-thrombotic activity in Swiss albino mouse assessed as protection against collagen/epinephrine-induced pulmonary thromboembolism at 100 umol/10 g, po administered as single dose pretreated for 60 mins followed by thrombotic challenge relative to control; format: functional
# Mus musculus [6] = assay: Toxicity in Swiss albino mouse assessed as bleeding time at 100 umol/10 g administered orally 60 mins prior to test by tail transection method; settings: in vivo, po, 1 h
smiles,measurement,setting,value
O=C(N/N=C/c1cccc(Oc2no[n+]([O-])c2S(=O)(=O)c2ccccc2)c1)c1ccccc1O,inhibition at 150 µM,Platelet [1],84.2%
same,inhibition at 150 µM,Platelet [2],17%
same,inhibition at 150 µM,Platelet [3],25.5%
same,Activity,[4],25.3%
O=C(N/N=C/c1cccc(Oc2no[n+]([O-])c2S(=O)(=O)c2ccccc2)c1)c1ccc(O)cc1,inhibition at 150 µM,Platelet [1],91.9%
same,inhibition at 150 µM,Platelet [2],14.3%
same,inhibition at 150 µM,Platelet [3],39.9%
same,Activity,[4],27.4%
O=C(N/N=C/c1ccc(O)cc1)c1cccc(O)c1,inhibition at 150 µM,Platelet [1],60.3%
same,inhibition at 150 µM,Platelet [2],72.8%
same,inhibition at 150 µM,Platelet [3],19.1%
O=C(N/N=C/c1ccc(Oc2no[n+]([O-])c2S(=O)(=O)c2ccccc2)cc1)c1cccc(O)c1,inhibition at 150 µM,Platelet [1],82.2%
same,inhibition at 150 µM,Platelet [2],37.3%
same,inhibition at 150 µM,Platelet [3],54.3%
same,Activity,[4],26.2%
CC(=O)Oc1ccccc1C(=O)O [ASPIRIN],inhibition at 150 µM,Platelet [1],27.7%
same,inhibition at 150 µM,Platelet [2],28.9%
same,inhibition at 150 µM,Platelet [3],63.4%
same,Activity,Mus musculus [5],40%
same,Time,Mus musculus [6],800 s
O=C(N/N=C/c1ccc(Oc2no[n+]([O-])c2S(=O)(=O)c2ccccc2)cc1)c1ccccc1O,inhibition at 150 µM,Platelet [1],74.3%
same,inhibition at 150 µM,Platelet [2],8.5%
same,inhibition at 150 µM,Platelet [3],34.4%
same,Activity,[4],24.5%
O=C(N/N=C/c1cccc(O)c1)c1ccccc1O,inhibition at 150 µM,Platelet [1],56%
same,inhibition at 150 µM,Platelet [2],60.8%
same,inhibition at 150 µM,Platelet [3],27.5%
O=S(=O)(c1ccccc1)c1no[n+]([O-])c1S(=O)(=O)c1ccccc1,inhibition at 150 µM,Platelet [1],89.8%
same,inhibition at 150 µM,Platelet [2],6.7%
same,inhibition at 150 µM,Platelet [3],29.7%
same,Activity,Mus musculus [5],inactive
same,Activity,[4],32.1%
O=C(N/N=C/c1ccc(O)cc1)c1ccc(O)cc1,inhibition at 150 µM,Platelet [1],31.3%
same,inhibition at 150 µM,Platelet [2],79.6%
same,inhibition at 150 µM,Platelet [3],44%
same,Activity,Mus musculus [5],40%
same,Time,Mus musculus [6],200 s
O=C(N/N=C/c1ccc(O)cc1)c1ccccc1O,inhibition at 150 µM,Platelet [1],58.2%
same,inhibition at 150 µM,Platelet [2],42.5%
same,inhibition at 150 µM,Platelet [3],35.9%
O=C(N/N=C/c1cccc(Oc2no[n+]([O-])c2S(=O)(=O)c2ccccc2)c1)c1cccc(O)c1,inhibition at 150 µM,Platelet [1],88.4%
same,inhibition at 150 µM,Platelet [2],25%
same,inhibition at 150 µM,Platelet [3],44.8%
same,Activity,[4],24.1%
O=C(N/N=C/c1cccc(O)c1)c1cccc(O)c1,inhibition at 150 µM,Platelet [1],46.1%
same,inhibition at 150 µM,Platelet [2],48.2%
same,inhibition at 150 µM,Platelet [3],29.1%
O=C(N/N=C/c1ccc(Oc2no[n+]([O-])c2S(=O)(=O)c2ccccc2)cc1)c1ccc(O)cc1,inhibition at 150 µM,Platelet [1],87.1%
same,inhibition at 150 µM,Platelet [2],20.3%
same,inhibition at 150 µM,Platelet [3],72.2%
same,Activity,Mus musculus [5],80%
same,Time,Mus musculus [6],380 s
same,Activity,[4],25.8%
O=C(N/N=C/c1cccc(O)c1)c1ccc(O)cc1,inhibition at 150 µM,Platelet [1],42.4%
same,inhibition at 150 µM,Platelet [2],74.1%
same,inhibition at 150 µM,Platelet [3],33.1%
